According to patent US20200215099A1, “NON-ANTICOAGULANT SULFATED OR SULFONATED POLYSACCHARIDES” (Baxalta Incorporated, priority 2012, published 2020):

Legend:
[1] = test system: FVIII-inhibited human whole blood; experiment: Rotation thromboelastometry (ROTEM); details: for Activity: normal blood 100, FVIII-inh. blood 0
Experimental: NASPs (0.4-11 μg/mL) were studied in fresh citrated human whole blood by rotation thromboelastometry (ROTEM), an assay that allows continuous visco-elastic assessment of whole blood clot formation and firmness. Blood was incubated with anti-human FVIII plasma raised in goat (Baxter Bioscience, Austria) at 50 BU/mL to simulate hemophilic conditions. Clotting was triggered with 0.044 pM tissue factor (TF) (PRP reagent, Thrombinoscope BV) in the presence of 40 μg/mL CTI (Haematologic Technologies Inc., Essex Junction, Vt., USA). Then 300 μL of the pre-warmed (37° C.) FVIII-inhibited blood was recalcified with 20 μL of a 0.2 M CaCl2 solution. Clot formation was monitored using a ROTEM instrument (Pentapharm Munich, Germany) at 37° C. The final assay concentration of rTF was 44 fM. The ROTEM recording was started immediately and measured for at least 120 min. Each blood sample was analyzed in two independent measurements.
The thromboelastographic parameters of clotting time (CT), clot formation time (CFT) and maximum clot firmness (MCF) were recorded in accordance with the manufacturer's instructions. The first derivative of the thromboelastogram data is plotted to obtain a graph of velocity (mm/s) against time (s). From this graph, the maximum velocity (maxV) and the time at which the maximum velocity is reached (maxV-t) are also determined.

[2] = test system: FVIII-inhibited plasma; experiment: Thrombin generation assay (CAT) in FVIII-inhibited plasma; type: biochemical, human
Experimental: The procoagulant activity of the sulfated polysaccharides was assessed by the Thrombin Generation Assay (TGA). The influence of each sulfated polysaccharide on thrombin generation was measured in duplicate via CAT in a Fluoroskan Ascent® reader (Thermo Labsystems, Helsinki, Finland; filters 390 nm excitation and 460 nm emission) following the slow cleavage of the fluorogenic substrate Z-Gly-GIy-Arg-AMC (Hemker H C. Pathophysiol Haemost Thromb (2003) 33(4):15). To each well of a 96 well microplate (Immulon 2HB, clear U-bottom; Thermo Electron) 80 μL of pre-warmed (37° C.) goat anti FVIII antibody treated human normal plasma pool was added. For triggering thrombin generation by tissue factor, 104 of PPP reagent containing a certain amount of recombinant human tissue factor (rTF) and phospholipid vesicles composed of phosphatidylserine, phosphatidylcholine and phosphatidylethanolamine (final concentration of 4 μM) (Thrombinoscope BV, Maastricht, The Netherlands) was added. For studying the procoagulant activity of sulfated polymers a final TF concentration of 1 pM was used to provide FVIII and TFPI sensitivity of the test system. Just prior to putting the plate into the pre-warmed (37° C.) reader, 10 µL of test or reference sample or calibrator compound was added. Thrombin generation was started by dispensing 204 of FluCa reagent (Thrombinoscope BV, Maastricht, The Netherlands) containing fluorogenic substrate and Hepes buffered CaCl2 (100 mM) into each well and fluorescence intensity was recorded at 37° C.
The parameters of the resulting thrombin generation curves were calculated using the Thrombinoscope™ software (Thrombinoscope BV, Maastricht, The Netherlands) and thrombin calibrator to correct for inner filter and substrate consumption effects (Hemker H C, Pathophysiol Haemost Thromb (2003) 33(4):15). With the thrombin calibrator as a reference, the molar concentration of thrombin in the test wells was calculated by the software. The thrombin amounts at the peak and peak times of each thrombin generation curve (peak thrombin, nM) were plotted against sulfated polysaccharide concentrations resulting in the procoagulant profile of these compounds. The thrombin generation assay results are illustrated in the figures appended hereto. From these plots half maximal effective concentrations (EC50) values are determined using a sigmoidal curve fit. The EC50 represents the concentration at which the half maximal thrombin peak is reached.

[3] = Pharmacokinetics after intravenous administration; type: in vivo, CD rats
Experimental: The preparations were either unfractionated (average MW of 63 kD) or fractionated by a filter method (lots A and B with an average MW of 12 and 14 kD, respectively). The substances were prepared in a physiological saline solution and injected at 5 mL/kg. Each group consisted of three animals. Blood sample were collected in the presence of citrate (ratio 1:9) before dosing and 5, 30 min, 1, 3, 6, and 10 h after the dosing. Platelet-poor plasma was prepared by two centrifugation steps at 3000 rpm. The plasma samples were analyzed for by a liquid-chromatography-mass spectroscopy, a substance-specific method for S-6-CI.

[4] = target: T1, full-length TFPI (Homo sapiens, UniProt P10646); experiment: Dilute prothrombin time assay with added TFPI (TFPI-dPT); type: biochemical; details: normal human plasma
T1 construct: 0.5 μg/mL full-length TFPI (aa 1-276, constitutively produced by SKHep1); made in house; host or cells: SKHep1
T1 sequence (P10646 29-304): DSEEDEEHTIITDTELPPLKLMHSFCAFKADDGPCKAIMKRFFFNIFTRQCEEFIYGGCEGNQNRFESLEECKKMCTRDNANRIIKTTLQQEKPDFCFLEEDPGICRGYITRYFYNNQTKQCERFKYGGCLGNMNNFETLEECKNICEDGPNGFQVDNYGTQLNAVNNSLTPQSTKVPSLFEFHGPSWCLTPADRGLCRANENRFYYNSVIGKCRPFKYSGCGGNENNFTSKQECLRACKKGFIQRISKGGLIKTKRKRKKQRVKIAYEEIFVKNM
Experimental: A dilute prothrombin time assay with added TFPI (TFPI-dPT) was used to evaluate the TFPI-inhibiting effect of the different NASPs. Pooled normal human plasma (George King Biomedical, Overland Park, Kans.) was pre-incubated with 0.5 μg/mL full-length TFPI (aa 1-276, constitutively produced by SKHep1) and the respective NASP (0-5 μg/mL) for 15 min at RT. TF reagent TriniClot PT Excel S (Trinity Biotech, Wicklow, Ireland), diluted in Hepes-buffered saline 1:200 with 0.5% BSA was added to the plasma samples on an ACL Pro Elite hemostasis analyzer (Instrumentation Laboratory, Bedford, Mass.). Clotting was initiated with 25 mM CaCl2). The volume ratio of plasma:TF:CaCl2 was 1:1:1.
For data analysis, TFPI-dPT is plotted against the log concentration. Half maximal effective concentrations (EC50) values are determined using a sigmoidal curve fit.

sulfated 6-carboxy-icodextrin
CFT ([1]; +0.41 μg/ml): 388 s
CT ([1]; +0.41 μg/ml): 1542 s
MCF ([1]; +0.41 μg/ml): 62 mm
Activity ([1]; +0.41 μg/ml): 108%
CFT ([1]; +1.23 μg/ml): 172 s
CT ([1]; +1.23 μg/ml): 1078 s
MCF ([1]; +1.23 μg/ml): 63.5 mm
Activity ([1]; +1.23 μg/ml): 129%
CFT ([1]; +3.7 μg/ml): 223 s
CT ([1]; +3.7 μg/ml): 1152 s
MCF ([1]; +3.7 μg/ml): 63 mm
Activity ([1]; +3.7 μg/ml): 125%
CFT ([1]; +11.1 μg/ml): 934 s
CT ([1]; +11.1 μg/ml): 2526 s
Activity ([1]; +11.1 μg/ml): 63%
restoration of coagulation (in words) ([1]; ROTEM, 0.044 pM TF): restores coagulation in FVIII-inhibited whole blood
procoagulant activity (in words) [2]: good procoagulant activity in CAT assays at very low concentrations
procoagulant at (concentration) ([2]; 37° C., 1 pM hTF, 4 μM PL): about 0.01 μg/mL
EC50 ([2]; half maximal thrombin peak, 1 pM hTF, 4 μM PL): 0.07 µg/mL
in vivo recovery (plasma concentration) ([3]; 5 min after i.v. dosing of 5 mg/kg): 28 to 44 µg/mL
half-life ([3]; i.v. 5 mg/kg, estimated from early time points): 30 to 45 min
reversal of the effect of rec. FL-TFPI (in words) [4]: reverses the anticoagulant effect of exogenous full-length TFPI
